Experimental data: patent US8404866B2, “Substituted heterocyclic mercaptosulfonamide metalloprotease inhibitors” (Florida State University Research Foundation, priority 2008, dated 2013)
Structures can show the parent of a compound that is named as a salt.

Experiments:
Type in all cases: biochemical
[1] = biological target: T1, MMP-1 (HFC; human fibroblast collagenase) (Homo sapiens, UniProt P03956); assay: Enzyme kinetic assay, inhibition of MMP-1; conditions: for Ki: read-out: Ki (value in parentheses), HFC MMP-1; for IC50: 25° C., pH 7.5, substrate 1 μM, read-out: IC50 (value without parentheses), HFC MMP-1
T1 sequence (P03956 100-469): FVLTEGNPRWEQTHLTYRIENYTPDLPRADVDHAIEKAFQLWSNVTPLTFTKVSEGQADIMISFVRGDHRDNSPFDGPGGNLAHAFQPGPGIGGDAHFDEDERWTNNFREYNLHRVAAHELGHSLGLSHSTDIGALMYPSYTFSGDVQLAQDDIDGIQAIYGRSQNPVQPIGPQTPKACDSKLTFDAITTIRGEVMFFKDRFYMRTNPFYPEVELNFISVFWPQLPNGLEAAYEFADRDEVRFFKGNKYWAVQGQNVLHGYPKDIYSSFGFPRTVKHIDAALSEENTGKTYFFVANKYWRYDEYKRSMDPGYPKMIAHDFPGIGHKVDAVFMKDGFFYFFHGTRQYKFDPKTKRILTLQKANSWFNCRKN
Excerpt: (§1) The following protocol was used to obtain the data found in the following table. Materials: The fluorescent peptide substrates for matrix metalloproteinases (MMPs) used were purchased from Bachem Chem. Co. The metal salts and Brij-35 were purchased from Fisher Scientific Inc. All other chemicals were purchased from Sigma-Aldrich Chem. Co. The sources and biochemical characterizations of multiple MMPs, including MMP-1/human fibroblast collagenase (HFC), MMP-2/human fibroblast gelatinase (HFG), MMP-8/human neutrophil collagenase (HNC), and MMP-9/human neutrophil gelatinase (HNG), MMP-7/human matrilysin (MLN), MMP-3/human fibroblast stromelysin-1 (HFS), human recombinant catalytic domain of membrane-type 1 matrix metalloproteinase (cdMT1-MMP), catalytic domain of MMP-12/metalloelastase (cdMET), and MMP-26/human endometase (EDM) were described previously (Sang, Q. X., Birkedal-Hansen, H., and Van Wart, H. E. Proteolytic and non-proteolytic activation of human neutrophil progelatinase B. Biochim. Biophys. Acta. 1995; 1251, 99-108; Sang, Q. A., Bodden, M. K., and Windsor, L. J. Activation of human progelatinase A by collagenase and matrilysin: activation of procollagenase by matrilysin. J. Protein. Chem. 1996; 15, 243-253; Li, H., Bauzon, D. E., Xu, X., Tschesche, H., Cao, J., and Sang, Q.-X. A. Immunological characterization of cell-surface and soluble forms of membrane type 1 matrix metalloproteinase in human breast cancer cells and in fibroblasts. Molec. Carcinog. 1998; 22, 84-94; Park, H. I., Ni, J., Gerkema, F. E., Liu, D., Belozerov, V. E., and Sang, Q.-X. A. Identification and characterization of human endometase (Matrix metalloproteinase-26) from endometrial tumor. J. Biol. Chem., 2000; 275, 20540-20544). The active concentrations of MMPs were determined by titration with GM6001, a tight-binding MMP inhibitor, as described previously (Park, H. I., Turk, B. E., Gerkema, F. E., Cantley, L. C., and Sang, Q.-X. A. Peptide substrate specificities and protein cleavage sites of human endometase/matrilysin-2/matrix metalloproteinase-26. J. Biol. Chem. 2002; 277, 35168-35175).
(§2) The active inhibitor concentrations were estimated by titrating the mercapto group with 5,5′-dithiobis(2-nitrobenzoic acid) (DTNB; Ellman's reagent) as described previously (Ellman, G. L. A colorimetric method for determining low concentrations of mercaptans. Arch. Biochem. Biophys. 1958; 74, 443-450; Ellman, G. L. Tissue sulfhydryl groups. Arch. Biochem. Biophys. 1959; 82, 70-77; Riddles, P. W., Blakeley, R. L., and Zerner, B. Ellman's reagent: 5,5′-dithiobis(2-nitrobenzoic acid)—a reexamination. Anal. Biochem. 1979; 94, 75-81). Briefly, the reaction of DTNB with the mercapto group produces 2-nitro-5-thiobenzoic acid (TNB). The concentration of TNB is then measured by monitoring the absorbance at 412 nm. Cysteine was used to generate the standard curve with a molar extinction coefficient of 14,000±500 M^−1 cm^−1, which is close to the value in the literature (Riddles, P. W., Blakeley, R. L., and Zerner, B. Ellman's reagent: 5,5′-dithiobis(2-nitrobenzoic acid)—a reexamination. Anal. Biochem. 1979; 94, 75-81).
(§3) The substrate Mca-PLGLDpaAR-NH2 was used to measure inhibition constants (Knight, C. G., Willenbrock. F., and Murphy, G. A novel coumarin-labelled peptide for sensitive continuous assays of the matrix metalloproteinases. FEBS Lett. 1992; 296, 263-266). Enzymatic assays were performed at 25° C. in 50 mM HEPES buffer at pH 7.5 in the presence of 10 mM CaCl2, 0.2 M NaCl, and 0.01% or 0.05% Brij-35 with substrate concentrations of 1 μM. The release of product was monitored by measuring fluorescence (excitation and emission wavelengths of 328 nm and 393 nm, respectively) with a Perkin Elmer Luminescence Spectrophotometer LS 50B connected to a temperature controlled water bath. All stock solutions of inhibitors were in dimethyl sulfoxide. […]

[2] = biological target: T2, MMP-26 (EDM; human endometase) (Homo sapiens, UniProt Q9NRE1); assay: Enzyme kinetic assay, inhibition of MMP-26; conditions: read-out: Ki (value in parentheses), EDM MMP-26
T2 sequence (Q9NRE1 90-261): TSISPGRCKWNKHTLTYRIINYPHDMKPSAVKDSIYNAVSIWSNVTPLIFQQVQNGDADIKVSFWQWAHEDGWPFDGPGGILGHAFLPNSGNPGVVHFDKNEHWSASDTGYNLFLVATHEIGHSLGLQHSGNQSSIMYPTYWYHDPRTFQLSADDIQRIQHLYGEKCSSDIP
Excerpt: as §1, §2, §3

[3] = biological target: MMP-3 (HFS; human fibroblast stromelysin-1) (Homo sapiens, UniProt P08254); assay: Enzyme kinetic assay, inhibition of MMP-3; conditions: for Ki: read-out: Ki (value in parentheses), HFS MMP-3; for IC50: 25° C., pH 7.5, substrate 1 μM, read-out: IC50 (value without parentheses), HFS MMP-3
Excerpt: as §1, §2, §3

[4] = biological target: T3, MMP-12 (cdMET; catalytic domain of MMP-12/metalloelastase) (Homo sapiens, UniProt P39900); assay: Enzyme kinetic assay, inhibition of MMP-12; conditions: read-out: Ki (value in parentheses), cdMET MMP-12
T3 construct: catalytic domain of MMP-12/metalloelastase (cdMET)
Excerpt: as §1, §2, §3

[5] = biological target: T4, MMP-14 (cdMT-1; human recombinant catalytic domain of membrane-type 1 matrix metalloproteinase) (Homo sapiens, UniProt P50281); assay: Enzyme kinetic assay, inhibition of MMP-14; conditions: read-out: Ki (value in parentheses), cdMT-1 MMP-14
T4 construct: human recombinant catalytic domain of membrane-type 1 matrix metalloproteinase (cdMT1-MMP)
Excerpt: as §1, §2, §3

[6] = biological target: MMP-9 (HNG; human neutrophil gelatinase) (Homo sapiens, UniProt P14780); assay: Enzyme kinetic assay, inhibition of MMP-9; conditions: read-out: Ki (value in parentheses), HNG MMP-9
Excerpt: as §1, §2, §3

Chain of MMP-3 (HFS; human fibroblast stromelysin-1) (P08254 100-477): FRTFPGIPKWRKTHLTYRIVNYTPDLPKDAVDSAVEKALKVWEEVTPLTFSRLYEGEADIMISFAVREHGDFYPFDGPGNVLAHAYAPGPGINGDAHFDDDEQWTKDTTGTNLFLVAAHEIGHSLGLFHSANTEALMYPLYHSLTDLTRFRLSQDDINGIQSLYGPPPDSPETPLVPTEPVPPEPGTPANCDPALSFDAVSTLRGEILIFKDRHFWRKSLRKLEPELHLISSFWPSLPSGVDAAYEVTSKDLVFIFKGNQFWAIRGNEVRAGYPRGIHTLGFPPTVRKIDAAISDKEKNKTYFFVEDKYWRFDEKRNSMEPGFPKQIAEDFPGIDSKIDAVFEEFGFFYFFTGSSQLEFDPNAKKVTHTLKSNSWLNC
T3 sequence (P39900 106-263 limits assumed, species assumed): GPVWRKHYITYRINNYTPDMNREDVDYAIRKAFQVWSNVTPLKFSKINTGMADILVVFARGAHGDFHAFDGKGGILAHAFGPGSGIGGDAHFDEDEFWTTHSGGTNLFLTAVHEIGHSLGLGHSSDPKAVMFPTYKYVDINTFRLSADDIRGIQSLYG
Chain of MMP-9 (HNG; human neutrophil gelatinase) (P14780 94-707): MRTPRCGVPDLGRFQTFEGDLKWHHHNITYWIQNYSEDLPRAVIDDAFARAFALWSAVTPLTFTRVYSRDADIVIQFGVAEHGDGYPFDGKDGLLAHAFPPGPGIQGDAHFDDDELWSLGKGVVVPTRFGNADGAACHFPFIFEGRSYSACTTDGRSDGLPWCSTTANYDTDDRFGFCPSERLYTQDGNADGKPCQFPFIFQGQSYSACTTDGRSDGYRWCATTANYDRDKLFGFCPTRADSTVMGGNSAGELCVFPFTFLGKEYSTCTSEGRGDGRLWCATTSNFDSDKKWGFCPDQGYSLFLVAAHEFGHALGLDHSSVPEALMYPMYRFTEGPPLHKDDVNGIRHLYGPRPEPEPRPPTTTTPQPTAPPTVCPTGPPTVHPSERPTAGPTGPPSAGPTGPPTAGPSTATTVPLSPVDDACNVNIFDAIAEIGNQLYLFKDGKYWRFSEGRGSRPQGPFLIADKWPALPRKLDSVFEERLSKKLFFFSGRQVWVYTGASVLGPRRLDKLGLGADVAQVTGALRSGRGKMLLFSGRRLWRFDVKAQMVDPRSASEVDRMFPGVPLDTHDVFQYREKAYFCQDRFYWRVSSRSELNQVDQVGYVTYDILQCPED

| SMILES | Ki [1] [nM] | Ki [2] [nM] | Ki [3] [nM] | Ki [4] [nM] | Ki [5] [nM] | Ki [6] [nM] | IC50 [1] [nM] | IC50 [3] [nM] |
| --- | --- | --- | --- | --- | --- | --- | --- | --- |
| NC(=O)N1C[C@H](NS(=O)(=O)c2ccc(Oc3ccccc3)cc2)[C@@H](S)C1 (racemic) [Example 1, (±)-N-Carbamoyl-trans-3-(4-phenoxybenzenesulfonamido)-4-mercaptopyrrolidine] | 4100 | 32 | 460 | 250 | 11 | 15 | – | – |
| O=C(NCCN1C(=O)c2ccccc2C1=O)N1C[C@H](NS(=O)(=O)c2ccc(Oc3ccccc3)cc2)[C@@H](S)C1 (racemic) [Example 2, (±)-N-(2-Phthalimidoethylaminocarbonyl)-trans-3-(4-phenoxybenzenesulfonamido)-4-mercaptopyrrolidine] | 2800 | 41 | 37 | 2 | 21 | 2.4 | – | – |
| O=S(=O)(N[C@H]1CNC[C@@H]1S)c1ccc(Oc2ccccc2)cc1 (racemic) [Example 3, (±)-trans-3-(4-Phenoxybenzenesulfonamido)-4-mercaptopyrrolidine Hydrochloride] | – | 28 | 2500 | 38 | 110 | 230 | ~25000 | – |
| CN([C@H]1CN(C(N)=O)C[C@@H]1S)S(=O)(=O)c1ccc(Oc2ccccc2)cc1 (racemic) [Example 4, (±)-N-Carbamoyl-trans-3-(N-methyl-4-phenoxybenzenesulfonamido)-4-mercaptopyrrolidine] | 850 | 19 | 350 | 160 | 62 | 1.3 | – | – |
| O=C(OCc1ccccc1)N1C[C@H](NS(=O)(=O)c2ccc(Oc3ccccc3)cc2)[C@@H](S)C1 (racemic) [Example 5, (±)-N-(Benzyloxycarbonyl)-trans-3-(4-phenoxybenzenesulfonamido)-4-mercaptopyrrolidine] | – | 72 | 4500 | 720 | 100 | 13 | > 12500 | – |
| O=C(OCc1ccccc1)N1C[C@H](NS(=O)(=O)c2ccc(-c3ccccc3)cc2)[C@@H](S)C1 (racemic) [Example 6, (±)-N-(Benzyloxycarbonyl)-trans-3-(4-phenylbenzenesulfonamido)-4-mercaptopyrrolidine] | – | 650 | – | 710 | 3100 | 81 | > 130000 | ~7000 |
| NCCCCCC(=O)N1C[C@H](NS(=O)(=O)c2ccc(Oc3ccccc3)cc2)[C@@H](S)C1 (racemic) [Example 7, (±)-N-(6-Aminohexanoyl)-trans-3-(4-phenoxybenzene-sulfonamido)-4-mercaptopyrrolidine Hydrochloride] | – | 4 | 2000 | 4.8 | 5 | 2.3 | > 3000 | – |
| CC(=O)NCCCCCC(=O)N1C[C@H](NS(=O)(=O)c2ccc(Oc3ccccc3)cc2)[C@@H](S)C1 (racemic) [Example 8, (±)-N-(6-Acetamidohexanoyl)-trans-3-(4-phenoxy-benzenesulfonamido)-4-mercaptopyrrolidine] | – | 3 | 810 | 2 | 4 | 1.5 | > 6000 | – |
| CC(=O)NCCCCCC(=O)N1C[C@H](NS(=O)(=O)c2ccc(-c3ccccc3)cc2)[C@@H](S)C1 (racemic) [Example 9, (±)-N-(6-Acetamidohexanoyl)-trans-3-(4-phenylbenzene-sulfonamido)-4-mercaptopyrrolidine] | – | 270 | – | 29 | 70 | 400 | > 6000 | ~20000 |
